From article PMC4231056, “Dihydroflavonol 4-Reductase Genes Encode Enzymes with Contrasting Substrate Specificity and Show Divergent Gene Expression Profiles in Fragaria Species” (PLoS ONE, 2014)

Experiments:
[1] = biological target: T1, DFR1s (recombinant, F. vesca) (Fragaria vesca, UniProt A0A0A0PTI9); assay: radiolabelled turnover assay, yeast protein preparation; assay type: biochemical; settings: NADPH; labelled compound (14C)
T1 construct: gene DFR; full-length ORF, 333 residues; expressed in yeast from pYES vector; not purified; result stated for all clones together
T1 sequence (A0A0A0PTI9 1-333): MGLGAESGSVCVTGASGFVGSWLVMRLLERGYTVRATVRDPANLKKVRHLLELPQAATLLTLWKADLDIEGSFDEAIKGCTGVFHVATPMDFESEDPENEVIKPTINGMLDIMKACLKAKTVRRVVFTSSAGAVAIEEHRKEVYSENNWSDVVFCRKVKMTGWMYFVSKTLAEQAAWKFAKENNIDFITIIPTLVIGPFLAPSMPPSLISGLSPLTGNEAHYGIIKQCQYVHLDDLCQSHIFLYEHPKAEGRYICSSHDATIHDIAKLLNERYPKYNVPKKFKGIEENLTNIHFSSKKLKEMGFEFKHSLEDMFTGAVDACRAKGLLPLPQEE

[2] = biological target: T2, DFR2s (recombinant, F. vesca) (Fragaria vesca, UniProt A0A0A0PVL5); assay: as above; assay type: biochemical; settings: NADPH; labelled compound (14C)
T2 construct: gene DFR; full-length ORF, 349 residues; expressed in yeast from pYES vector; not purified; result stated for all clones together
T2 sequence (A0A0A0PVL5 1-349): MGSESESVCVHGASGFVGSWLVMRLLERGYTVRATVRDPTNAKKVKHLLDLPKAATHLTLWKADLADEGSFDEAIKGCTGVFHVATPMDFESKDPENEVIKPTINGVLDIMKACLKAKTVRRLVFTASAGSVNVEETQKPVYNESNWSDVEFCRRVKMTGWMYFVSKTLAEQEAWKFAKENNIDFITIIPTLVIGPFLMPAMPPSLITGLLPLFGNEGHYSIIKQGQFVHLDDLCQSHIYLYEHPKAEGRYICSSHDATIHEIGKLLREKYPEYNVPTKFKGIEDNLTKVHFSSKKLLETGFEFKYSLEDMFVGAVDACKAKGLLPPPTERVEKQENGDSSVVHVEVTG

[3] = substrate: O=C1c2c(O)cc(O)cc2O[C@H](c2ccc(O)cc2)[C@H]1O; assay: radiolabelled TLC assay, Lineweaver-Burk, yeast protein preparation; assay type: biochemical, Fragaria x ananassa; settings: NADPH; optimised conditions (pH optimum 6.00); labelled compound (14C); K cat is per kg protein, a specific rate
Excerpt: radiolabelled TLC assay, Lineweaver-Burk, yeast protein preparation on DFR1 (recombinant, KC894048)

[4] = substrate: O=C1c2c(O)cc(O)cc2O[C@H](c2ccc(O)c(O)c2)[C@H]1O; assay: as above; assay type: biochemical, Fragaria x ananassa; settings: NADPH; optimised conditions (pH optimum 6.25); labelled compound (14C); K cat is per kg protein, a specific rate
Excerpt: (§1) radiolabelled TLC assay, Lineweaver-Burk, yeast protein preparation on DFR2 (recombinant, KC894055)

[5] = substrate: O=C1c2c(O)cc(O)cc2O[C@H](c2cc(O)c(O)c(O)c2)[C@H]1O; assay: as above; assay type: biochemical, Fragaria x ananassa; settings: NADPH; optimised conditions (pH optimum 5.75); labelled compound (14C); K cat is per kg protein, a specific rate
Excerpt: as §1

`O=C1c2c(O)cc(O)cc2O[C@H](c2ccc(O)cc2)[C@H]1O` [DHK] was tested, and the “radiolabelled turnover assay, yeast protein preparation” value (“radiolabelled turnover assay” for short) [1] was “Recombinant DFR1 s, in contrast, were selective for DHK”.

In the case of `O=C1c2c(O)cc(O)cc2O[C@H](c2cc(O)c(O)c(O)c2)[C@H]1O` [DHM], the “radiolabelled turnover assay” value [2] is reported as “The recombinant DFR2s converted DHQ and DHM to leucocyanidin and leucodelphinidin”.

With `O=C1c2c(O)cc(O)cc2O[C@H](c2ccc(O)c(O)c2)[C@H]1O` [DHQ] the “radiolabelled turnover assay” value [2] was “The recombinant DFR2s converted DHQ and DHM to leucocyanidin and leucodelphinidin”.

B1: DFR1 (recombinant, KC894048) (Fragaria x ananassa) (protein)
chain: MGLGAESGSVCVTGASGFVGSWLVMRLLEHGYTVRATVRDPANLKKVRHLLELPQAATRLTLWKADLDVEGSFDEAIKGCTGVFHVATPMDFESEDPENEVIKPTINGMLDIMKACLKAKTVRRVVFTSSAGAVAIEEHRKEVYSENNWSDVVFCRKVKMTGWMYFVSKTLAEQAAWKFAKENNIDFITIIPTLVIGPFLAPSMPPSLISGLSPLTGNEAHYGIIKQCQYVHLDDLCQSHIFLYEHPKAEGRYICSSHDATIHDIAKLLNEKYPKYNVPKKFKGIEENLTNIHFSSKKLKEMGFEFKHSLEDMFTGAVDACREKGLLPLPQEEETEKRRAG
notes: full-length ORF, 341 residues; expressed in yeast INVSc1 from pYES2.1/V5-His-TOPO; reverse primer starts with the stop codon; cell protein preparation, not purified
With B1 the Km [3] was 0.40 µM.

B2: DFR2 (recombinant, KC894055) (Fragaria x ananassa) (protein)
chain: MGSESESVCVTGASGFVGSWLVMRLLERGYTVRATVRDPTNAKKVKHLLDLPKAATHLTLWKADLADEGSFDEAIKGCSGVFHVATPMDFESKDPENEVIKPTINGVLDIMKACLKAKTVRRLVFTASAGSVNVEETQKPVYNESNWSDVEFCRRVKMTGWMYFVSKTLAEQEAWKFAKENNIDFITIIPTLVIGPFLMPAMPPSLITGLSPLFGNEGHYSIIKQGQFVHLDDLCQSHIYLYEHPKAEGRYICSSHDATIHEIAKLLREKYPEYNVPTKFKGIEDNLTKVHFSSKKLLETGFEFKYSLEDMFVGAVDACKAKGLLPPPTERVEKQEAGDSGVVHVEVTG
notes: full-length ORF, 349 residues; expressed in yeast INVSc1 from pYES2.1/V5-His-TOPO; reverse primer holds the stop codon; cell protein preparation, not purified
For B2, the Km [4] was 0.40 µM and the Km [5] was 2.3 µM.
